What follows are molecules tested against T1, TweCA (TweCAδ) (Conticribra weissflogii, UniProt Q5U9J1) (assay: stopped-flow CO2 hydration assay).
T1 construct: gene ca1; recombinant, obtained in-house as reported earlier
T1 sequence (Q5U9J1 1-281): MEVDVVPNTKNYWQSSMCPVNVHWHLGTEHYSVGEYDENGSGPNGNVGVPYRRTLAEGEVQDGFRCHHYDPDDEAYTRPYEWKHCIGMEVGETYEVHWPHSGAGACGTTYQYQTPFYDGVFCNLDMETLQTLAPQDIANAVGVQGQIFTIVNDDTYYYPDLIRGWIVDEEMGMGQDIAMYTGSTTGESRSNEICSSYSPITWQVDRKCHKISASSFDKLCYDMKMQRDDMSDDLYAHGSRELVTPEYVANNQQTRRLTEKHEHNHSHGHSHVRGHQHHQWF
Format: biochemical

| SMILES | Ki [µM] |
| --- | --- |
| Oc1ccccc1 [compound 1, phenol (R = H)] | 52.3 |
| Oc1cccc(O)c1 [compound 3, R = 3-OH] | 48.2 |
| Oc1ccc(O)cc1 [compound 4, R = 4-OH] | 34.9 |
| Nc1cccc(O)c1 [compound 6, R = 3-NH2] | 65.4 |
| Nc1ccc(O)cc1 [compound 7, R = 4-NH2] | 17.6 |
| N#Cc1ccc(O)cc1 [compound 9, R = 4-CN] | 56.9 |
| O=C(O)c1ccccc1O [compound 10, R = 2-COOH] | 0.95 |
| OCc1ccc(O)cc1 [compound 12, R = 4-CH2OH] | 35.9 |
| Nc1cc(O)ccc1Cl [compound 13, R = 3-NH2-4-Cl] | > 100 |
| Nc1ccc(O)c(Cl)c1 [compound 14, R = 4-NH2-2-Cl] | > 100 |

Second part, the molecule after the results:

| Ki [µM] | SMILES |
| --- | --- |
| 4.5 | Oc1ccccc1O [compound 2, R = 2-OH] |
| 2 | Oc1ccc(O)c(O)c1 [compound 5, R = 2,4-diOH] |
| 7.9 | CC(=O)Nc1ccc(O)cc1 [compound 8, R = 4-NHCOCH3] |
| 1.4 | O=C(O)c1ccc(O)cc1 [compound 11, R = 4-COOH] |
| 30.7 | Oc1cc(F)ccc1F [compound 15, R = 2,5-diF] |
| 21 | Oc1cc(F)cc(F)c1 [compound 16, R = 3,5-diF] |
| 13.8 | Oc1c(F)cc(F)cc1F [compound 17, R = 2,4,6-triF] |
| 4.9 | O=C(O)c1ccc(O)c(O)c1 [compound 18, R = 4-COOH-2-OH] |
| 2.7 | O=C(O)c1c(O)cccc1O [compound 19, R = 2-COOH-3-OH] |
| 0.81 | O=C(O)c1cc(O)ccc1O [compound 20, R = 2-COOH-4-OH] |
| 14.5 | O=C(O)/C=C/c1ccc(O)cc1 [compound 21, R = 4-(CHCHCOOH)] |
| 5.9 | O=C(O)/C=C/c1ccc(O)c(O)c1 [compound 22, R = 2-OH-4-(CHCHCOOH)] |
